Like-named read-outs stand apart in the source and are kept apart here.
Molecular target: T1, human RXFP1 (Homo sapiens, UniProt Q9HBX9)
T1 sequence (Q9HBX9 1-757): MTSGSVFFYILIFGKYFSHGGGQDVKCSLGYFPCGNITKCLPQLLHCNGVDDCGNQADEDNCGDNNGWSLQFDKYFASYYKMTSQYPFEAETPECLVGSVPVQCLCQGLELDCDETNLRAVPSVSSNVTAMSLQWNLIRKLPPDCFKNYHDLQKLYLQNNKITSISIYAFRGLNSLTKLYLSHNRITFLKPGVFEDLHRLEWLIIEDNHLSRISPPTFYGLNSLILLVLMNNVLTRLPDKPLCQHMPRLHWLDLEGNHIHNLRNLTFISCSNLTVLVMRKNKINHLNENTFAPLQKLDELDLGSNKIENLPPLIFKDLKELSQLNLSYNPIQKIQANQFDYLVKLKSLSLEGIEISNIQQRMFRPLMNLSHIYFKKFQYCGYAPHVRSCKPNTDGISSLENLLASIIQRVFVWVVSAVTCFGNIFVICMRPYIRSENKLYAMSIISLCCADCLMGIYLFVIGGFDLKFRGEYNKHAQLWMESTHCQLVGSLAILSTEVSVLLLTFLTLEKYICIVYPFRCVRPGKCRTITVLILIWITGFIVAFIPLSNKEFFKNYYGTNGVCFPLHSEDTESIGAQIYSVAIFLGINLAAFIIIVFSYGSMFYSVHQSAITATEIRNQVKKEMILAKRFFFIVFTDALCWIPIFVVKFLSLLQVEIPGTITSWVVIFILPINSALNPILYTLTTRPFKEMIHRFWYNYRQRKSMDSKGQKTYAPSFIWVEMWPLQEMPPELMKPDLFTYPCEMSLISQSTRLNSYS
Test: RXFP1 Hu cAMP (Test A)
Type: cell-based
Set-up: expressed in transfected cells; host or cells: Jump-In T-REx CHO-K1 cells (ThermoFisher), induced with 10 ng/ml doxycycline for 24 h
Description: To screen for modulators of hRXFP1, an assay identifying compounds that stimulate cAMP production via the Gs-coupled hRXFP1 receptor was used. cAMP HiRange HTRF kit (available from CisBio Bioassays, France; catalogue number 62AM6PEJ) was employed in large according to manufacturer's recommendations for detection of cAMP. The HTRF method is a competitive immunoassay between native cAMP produced by cells and cAMP labeled with the dye d2. The tracer binding is visualized with a cryptate labeled antibody for cAMP and the signal is thus inversely proportional to the amount of produced cAMP.
Cells: Jump-In™ T-REx™ CHO-K1 Cells (ThermoFisher) stably transfected with human RXFP1 was employed. Cells were induced to express human RXFP1 by treatment with 10 ng/ml doxycycline for 24 h. Cells were then cryopreserved for long term storage.
HTRF detection reagents: cAMP-d2 and anti-cAMP cryptate reconstituted according to CisBio instructions were diluted 1:40 in lysis buffer provided with the HTRF-kit.
3. 4 μL assay buffer with 1 mM IBMX (0.5 mM final concentration) to block phosphodiesterases was added with Multidrop Combi (ThermoFisher).
6. 4 μL cAMP-d2 in lysis buffer was added with Multidrop Combi.
7. 4 μL anti-cAMP cryptate in lysis buffer was added with Multidrop Combi
8. 2 h incubation at room temperature
Using a cAMP standard curve, HTRF data was converted to amount cAMP produced in the samples which was subsequentially used for calculation of concentration responses. Concentration response data were fitted with a four parameter logistic fit, the Hill equation. The results from the assay are reported in Table 36 as EC50 (μM) and Sinf (%).
Where the assay was run multiple times for the same compound, the geometric mean is reported.
Sinf is the fitted activity level, efficacy, at infinite concentration of test compound. To facilitate comparison of efficacy data, efficacy was normalized to % effect of the response stimulated by a saturating concentration of relaxin (1 nM). Where the assay was run multiple times for the same compound, the arithmetic mean is reported.

[1] = RXFP1 Hu cAMP, read-out: Test A EC50

Row | SMILES | Test A Sinf (RXFP1 Hu cAMP) [%] | EC50 [1] [nM] | EC50 (Test A EC50, RXFP1 Hu cAMP) [nM]
1 | COc1cc(C#N)c(OC2CCC(C)(C(=O)O)CC2)cc1C(=O)NC1C(C(=O)NCC2(C)CCC2)C2CCC1N2CCC(F)(F)F (single isomer, unassigned) [Example 537, (1R,4s)-4-(2-Cyano-4-methoxy-5-(((1S*,2S*,3R*,4R*)-3-(((1-methylcyclobutyl)methyl)carbamoyl)-7-(3,3,3-trifluoropropyl)-7-azabicyclo[2.2.1]heptan-2-yl)carbamoyl)phenoxy)-1-methylcyclohexane-1-carboxylic acid] | 77 | 6000 | –
2 | COc1cc(F)c(O[C@@H]2CC[C@H](C(=O)O)OC2)cc1C(=O)NC1[C@H]2CC[C@H](C2)[C@@H]1C(=O)Nc1cccc(S(=O)(=O)C(F)(F)F)c1 (mixture of isomers) [Example 442] | 103 | 580 | –
3 | COc1cc(F)c(-c2ccc(C(=O)O)cc2)cc1C(=O)N[C@@H]1CC[C@@H]1C(=O)Nc1cccc(S(=O)(=O)C(F)(F)F)c1 (racemic) [Example 301] | 69 | – | –
4 | COc1cc(C#N)c(O[C@H]2CC[C@@](C)(C(=O)O)CC2)cc1C(=O)N[C@H]1[C@@H](C(=O)NCC2(C)CCC2)[C@H]2CC[C@@H]1N2C(=O)OC(C)(C)C (racemic) [Example 334] | 96 | – | 4.3
5 | COc1cc(F)c(-c2cnc(C(=O)O)nc2)cc1C(=O)N[C@H]1[C@@H](C(=O)Nc2cccc(S(=O)(=O)C(F)(F)F)c2)[C@@H]2C=C[C@H]1C2 (racemic) [Example 280] | – | > 40000 | –
6 | CCc1cc(OC)c(C(=O)N[C@@H]2[C@H]3CC[C@H](C3)[C@@H]2C(=O)NC23CC(F)(C2)C3)cc1O[C@H]1CC[C@@](C)(C(=O)O)CC1 [Example 383] | 89 | 120 | –
7 | COc1cc(F)c(-c2ccc(C(=O)O)cc2)cc1C(=O)N[C@H]1[C@@H](C(=O)N[C@@H]2CCCN(S(=O)(=O)C(F)(F)F)C2)[C@@H]2C=C[C@H]1C2 (racemic) [Example 312] | 50 | 7500 | –
8 | COc1cc(F)c(O[C@H]2CC[C@@](C)(C(=O)O)CC2)cc1C(=O)NC1CCN(C(C)=O)CC1C(=O)Nc1cccc(S(=O)(=O)C(F)(F)F)c1 (single isomer, unassigned) [Example 514, (1R,4s)-4-(5-(((3R*,4S*)-1-Acetyl-3-((3-((trifluoromethyl)sulfonyl)phenyl)carbamoyl)piperidin-4-yl)carbamoyl)-2-fluoro-4-methoxyphenoxy)-1-methylcyclohexane-1-carboxylic acid] | 107 | 15000 | –
9 | COc1ccc(Cc2ccccc2C(=O)O)cc1C(=O)N[C@H]1[C@@H](C(=O)Nc2cccc(S(=O)(=O)C(F)(F)F)c2)[C@@H]2C=C[C@H]1C2 (racemic) [Example 223, rac-2-(4-Methoxy-3-(((1R,2R,3S,4S)-3-((3-((trifluoromethyl)sulfonyl)phenyl)carbamoyl)bicyclo[2.2.1]hept-5-en-2-yl)carbamoyl)benzyl)benzoic acid] | – | > 40000 | –

Now from value to compound, other results behind:

Row | Test A Sinf (RXFP1 Hu cAMP) [%] | EC50 [1] [nM] | SMILES | EC50 (Test A EC50, RXFP1 Hu cAMP) [nM]
10 | 95 | 26 | COc1cc(F)c(-c2ccc([C@@H]3C[C@H]3C(=O)O)nc2)cc1C(=O)N[C@@H]1[C@H]2CC[C@H](C2)[C@@H]1C(=O)Nc1cccc(S(=O)(=O)C(F)(F)F)c1 (single isomer, unassigned) [Example 262, (1R*,2R*)-2-(5-(2-Fluoro-4-methoxy-5-(((1S,2R,3S,4R)-3-((3-((trifluoromethyl)sulfonyl)phenyl)carbamoyl)bicyclo[2.2.1]heptan-2-yl)carbamoyl)phenyl)pyridin-2-yl)cyclopropane-1-carboxylic acid] | –
11 | 73 | – | O=C(O)c1ccc(-c2cc(C(=O)N[C@H]3[C@@H](C(=O)Nc4cccc(S(=O)(=O)C(F)(F)F)c4)[C@@H]4C=C[C@H]3C4)c(F)cc2F)cc1 (racemic) [Example 306, rac-2′,4′-Difluoro-5′-(((1R,2R,3S,4S)-3-((3-((trifluoromethyl)sulfonyl)phenyl)carbamoyl)bicyclo[2.2.1]hept-5-en-2-yl)carbamoyl)-[1,1′-biphenyl]-4-carboxylic acid] | –
12 | 136 | 190 | COc1cc(C#N)c(O[C@H]2CC[C@@](C)(C(=O)O)CC2)cc1C(=O)Nc1cc(C)ccc1C(=O)N[C@H](C)C(C)C [Example 170] | –
13 | 76 | – | COc1cc(F)c(OCc2cccc(C(C)(C)C(=O)O)c2)cc1C(=O)N[C@H]1[C@@H](C(=O)Nc2cccc(S(=O)(=O)C(F)(F)F)c2)[C@@H]2C=C[C@H]1C2 (racemic) [Example 454] | –
14 | 95 | 78 | COc1cc(C#N)c(O[C@H]2CC[C@@](C)(C(=O)O)CC2)cc1C(=O)N[C@@H]1[C@H]2CC[C@H](C2)[C@@H]1C(=O)NCCC(C)(C)C [Example 130] | –
15 | 80 | 5100 | COc1ccc(Oc2cccc(C(=O)O)c2)cc1C(=O)N[C@H]1[C@@H](C(=O)Nc2cccc(S(=O)(=O)C(F)(F)F)c2)[C@@H]2C=C[C@H]1C2 (racemic) [Example 428] | –
16 | – | > 40000 | COc1cc(F)c(-c2cccc(C(=O)O)n2)cc1C(=O)N[C@H]1[C@@H](C(=O)Nc2cccc(S(=O)(=O)C(F)(F)F)c2)[C@@H]2C=C[C@H]1C2 (racemic) [Example 279] | –
17 | 100 | 1200 | COc1cc(C#N)c(O[C@H]2CC[C@@](C)(C(=O)O)CC2)cc1C(=O)N[C@@H]1[C@H]2CC[C@H](C2)[C@@H]1C(=O)NCC(C)(C)CO [Example 138] | –
18 | – | > 40000 | COc1ccc(CCC(=O)O)cc1C(=O)N[C@H]1[C@@H](C(=O)Nc2cccc(S(=O)(=O)C(F)(F)F)c2)[C@@H]2C=C[C@H]1C2 (racemic) [Example 218, rac-3-(4-Methoxy-3-(((1R,2R,3S,4S)-3-((3-((trifluoromethyl)sulfonyl)phenyl)carbamoyl)bicyclo[2.2.1]hept-5-en-2-yl)carbamoyl)phenyl)propanoic acid] | –
19 | 94 | 14 | COc1cc(F)c(O[C@H]2C[C@@](C)(C(=O)O)C2)cc1C(=O)N[C@@H]1[C@@H]2CC[C@@H](C2)[C@@H]1C(=O)Nc1cccc(S(=O)(=O)C(F)(F)F)c1 [Example 505, (1S,3s)-3-(2-Fluoro-4-methoxy-5-(((1R,2R,3S,4S)-3-((3-((trifluoromethyl)sulfonyl)phenyl)carbamoyl)bicyclo[2.2.1]heptan-2-yl)carbamoyl)phenoxy)-1-methylcyclobutane-1-carboxylic acid] | –
20 | 107 | 240 | COc1cc(C#N)c(O[C@H]2CC[C@@](C)(C(=O)O)CC2)cc1C(=O)N[C@@H]1[C@H]2CC[C@H](C2)[C@@H]1C(=O)NCC(C)(C)OC [Example 129] | –
21 | 98 | 900 | COc1cc(F)c(OC2CCCC(C(=O)O)C2)cc1C(=O)N[C@@H]1[C@H]2CC[C@H](C2)[C@@H]1C(=O)Nc1cccc(S(=O)(=O)C(F)(F)F)c1 (single isomer, unassigned) [Example 446] | –
22 | – | > 40000 | COc1cc(F)c(O[C@H]2CC[C@@](CO)(C(=O)O)CC2)cc1C(=O)NC1COCC1C(=O)NCC(C)(C)C (single isomer, unassigned) [Example 578, (1R,4s)-4-(2-Fluoro-4-methoxy-5-(((3S*,4R*)-4-(neopentylcarbamoyl)tetrahydrofuran-3-yl)carbamoyl)phenoxy)-1-(hydroxymethyl)cyclohexane-1-carboxylic acid] | –
